One data set has as its system Gram-negative bacteria. To be noted: glycosylated form; cited from earlier work.
For data set [1] the following is noted: aminopeptidase and carboxypeptidase cleavage; cited from earlier work.
For data set [2] the following is noted: cited from earlier work.
The next data set concerns Pseudomonas auruginosa. The experiment in a line: Additional antimicrobial test (MIC). Type of data set: cell-based.
The subject of data set [3] is Yersinia pseudotuberculosis. In kind it is cell-based. To be noted: Gram −, BHI, 35 ° C.
The subject of a further data set is Bacillus globigii. The experiment in a line: Additional antimicrobial test (MIC). Type of data set: cell-based. To be noted: Gram +, 37 ° C.
For another data set, the system named is Bacillus anthracis. In kind it is cell-based. To be noted: Gram +, BHI, 37 ° C.
The test system of the next data set is Yersinia pestis KIM5. In kind it is cell-based. Particulars: Yersinia pestis KIM5, Gram −, BHI, 22 ° C.
Data set [4] deals with Salmonella typhimurium Rc. Particulars: Gram −, NB, 37 ° C.
Data set [5] concerns Methicillinresistant Staphylococcus aureus (MRSA). The experiment in a line: Additional antimicrobial test (MIC). Type of data set: cell-based. Particulars: Gram +, NB, 37 ° C.
For data set [6], the system named is Salmonella typhimurium Re. To be noted: Gram −, NB, 37 ° C.
The test system of the next data set is Vibrio cholerae. The experiment in a line: Additional antimicrobial test (MIC). In kind it is cell-based. Particulars: Gram −, BHI, 37 ° C.
The test system of data set [7] is Salmonella typhimurium Rd1. To be noted: Salmonella typhimurium Rd1, Gram −, NB, 37 ° C.
For a further data set, the system named is Salmonella typhimurium. To be noted: murium.
Data set [8] concerns Salmonella typhimurium Rb. Particulars: murium Rb.
The next data set deals with Bacillus thuringiensis. The experiment in a line: Additional antimicrobial test (MIC). Type of data set: cell-based. To be noted: Gram +, BHI, 37 ° C.
Another data set concerns E. coli ATCC 11775. Type of data set: cell-based. Particulars: ATCC 11775, 24 h. How it is done: Lyophilized peptides were dissolved in NB to give a concentration of 400 μM and filtered using 0.22 μm filter discs (Millex GV, Durapore). An overnight culture in NB was adjusted to 5×10^6 CFU/mL and inoculated into the micro titer plate wells (10 μL) containing each 100 μL of a serial 2-fold dilution (200-0.4 μM) of the tested peptide in NB. Plates were incubated while gently shaking at 37 ° C. for 24 h. Next, 80 μL suspension of each well was transported into a flat-bottom 96-well plate (Costar). The absorbance was measured at 600 nm using a μQuant micro plate spectrophotometer (Bio-Tek Instruments). All peptides were measured in quadruplo. The peptide with sequence […] (see Otvos Jr, […]; Otvos, B. I.; Hoffmann, […].; Wade, […].; Bulet, P. Protein Sci. 2000, 9, 742) was used as negative control.

Data set [9] relates to aminopeptidase and carboxypeptidase. The experiment in a line: mammalian serum. Particulars: up to four hour; cited from earlier work.
Another data set can be described thus: mammalian serum. Particulars: up to four hour period; cited from earlier work.

The text below walks through data of patent US20090312521A1 (priority 2004, published 2009).

≈ marks a conversion by molar mass, not a printed value. Entries after “also recorded” stand apart in the source; their conditions may differ. Non-standard residues stand in square brackets, D forms with d. Residues, ends and D or L forms follow the SMILES beside them. βAla = NCCC(=O)O

“Gly-Lys-Pro-Arg-Pro-Tyr-Ser*-Pro-Arg-Pro-Thr-Ser-His-Pro-Arg-Pro-Ile-Arg-Val [native, glycosylated peptide]”: in the data set with Gram-negative bacteria, the “activity against Gram-negative bacteria” value is reported as “moderately active” and the “time needed to kill bacteria in vivo” value is 24 h. Also, the “degradation in mammalian serum” value in data set [1] is recorded as “completely degraded within a four hour period”. Also, in data set [2], the “antibacterial activity when injected into mice” value was “no antibacterial activity”.
For `CC[C@H](C)[C@H](NC(=O)[C@@H]1CCCN1C(=O)[C@H](CCCNC(=N)N)NC(=O)[C@@H]1CCCN1C(=O)[C@H](Cc1c[nH]cn1)NC(=O)[C@H](CO)NC(=O)[C@@H](NC(=O)[C@@H]1CCCN1C(=O)[C@H](CCCNC(=N)N)NC(=O)[C@@H]1CCCN1C(=O)[C@@H](NC(=O)[C@H](Cc1ccc(O)cc1)NC(=O)[C@@H]1CCCN1C(=O)[C@H](CCCNC(=N)N)NC(=O)[C@@H]1CCCN1C(=O)[C@H](CCCCN)NC(=O)CCN)[C@@H](C)O)[C@@H](C)O)C(=O)N[C@@H](CCCNC(=N)N)C(=O)N[C@H](C(=O)O)C(C)C` [Peptide 14, βAlaKPRP YTPRP TSHPR PIRV] (H-[βAla]KPRPYTPRPTSHPRPIRV-OH; N-terminus assumed), the MIC in the data set on Salmonella give is 100 µM (≈ 223 µg/mL); in the data set with E. coli O157: H7 it was 25 µM (≈ 55.7 µg/mL); against Pseudomonas auruginosa, “NI at ≦100 μM”; in data set [3], “NI at ≦100 μM”; in the data set on Bacillus globigii, “NI at ≦100 μM”; in the data set with Bacillus anthracis, “NI at ≦100 μM”. The MIC result in the data set with Yersinia pestis KIM5 was “NI at ≦100 μM”; in [4] it was 100 µM (≈ 223 µg/mL); in [5], “NI at ≦100 μM”; in data set [6], 3.38 µM (≈ 7.53 µg/mL); in the data set on Vibrio cholerae, “NI at ≦100 μM”; in data set [7] it was 12.5 µM (≈ 27.8 µg/mL). Also, the MIC against Salmonella typhimurium was 50 µM (≈ 111 µg/mL); in data set [8] it was 12.5 µM (≈ 27.8 µg/mL); in the data set with Klebsiella pneumoniae it was 100 µM (≈ 223 µg/mL); against Salmonella infantis, 25 µM (≈ 55.7 µg/mL); against Bacillus thuringiensis, “NI at ≦100 μM”; in the data set on E. coli ATCC 11775 it was 3.1 µM (≈ 6.9 µg/mL). In addition, the MIC against Salmonella panama worked out at 25 µM (≈ 55.7 µg/mL); with Shigella sonnei, 100 µM (≈ 223 µg/mL); against Salmonella montevideo, 12.5 µM (≈ 27.8 µg/mL); against Salmonella enteritidis it was 12.5 µM (≈ 27.8 µg/mL).
`CC[C@H](C)[C@H](NC(=O)[C@@H]1CCCN1C(=O)[C@H](CCCNC(=N)N)NC(=O)[C@@H]1CCCN1C(=O)[C@H](Cc1cnc[nH]1)NC(=O)[C@H](CO)NC(=O)[C@@H](NC(=O)[C@@H]1CCCN1C(=O)[C@H](CCCNC(=N)N)NC(=O)[C@@H]1CCCN1C(=O)[C@H](CO)NC(=O)[C@H](Cc1ccc(O)cc1)NC(=O)[C@@H]1CCCN1C(=O)[C@H](CCCNC(=N)N)NC(=O)[C@@H]1CCCN1C(=O)[C@H](CCCCN)NC(=O)CN)[C@@H](C)O)C(=O)N[C@@H](CCCNC(=N)N)C(=O)N[C@H](C(=O)O)C(C)C` [Drosocin] (H-GKPRPYSPRPTSHPRPIRV-OH): the MIC is 25 µM (≈ 55 µg/mL) against Salmonella give; 25 µM (≈ 55 µg/mL) with E. coli O157: H7; 12.5 µM (≈ 27.5 µg/mL) against Erwinia herbicola; 100 µM (≈ 220 µg/mL) against Enterobacter aerogenes; 25 µM (≈ 55 µg/mL) in the data set with Salmonella typhimurium; 50 µM (≈ 110 µg/mL) in data set [8]. Also, the MIC against Klebsiella pneumoniae came to 100 µM (≈ 220 µg/mL); against Salmonella infantis, 50 µM (≈ 110 µg/mL); in the data set with Erwinia chrysanthemi it was 100 µM (≈ 220 µg/mL); in the data set with Salmonella panama, 25 µM (≈ 55 µg/mL); in the data set with Shigella sonnei it was 100 µM (≈ 220 µg/mL); against Salmonella montevideo, 50 µM (≈ 110 µg/mL). This compound showed an MIC against Salmonella enteritidis of 50 µM (≈ 110 µg/mL).
In the case of “Gly-Lys-Pro-Arg-Pro-Tyr-Ser*-Pro-Arg-Pro-Thr-Ser-His-Pro-Arg-Pro-Ile-Arg-Val”, the fragment found result in data set [9] is recorded as “metabolites lacking five amino terminal residues; also recorded: metabolites lacking two carboxy terminal residues”; in the data set “mammalian serum”, “metabolite lacking five amino terminal residues; also recorded: metabolite lacking two carboxy terminal residues”.
As for `CC[C@H](C)[C@H](NC(=O)[C@@H]1CCCN1C(=O)[C@H](CCCNC(=N)N)NC(=O)[C@@H]1CCCN1C(=O)[C@H](Cc1c[nH]cn1)NC(=O)[C@H](CO)NC(=O)[C@@H](NC(=O)[C@@H]1CCCN1C(=O)[C@H](CCCNC(=N)N)NC(=O)[C@@H]1CCCN1C(=O)[C@@H](NC(=O)[C@H](Cc1ccc(O)cc1)NC(=O)[C@@H]1CCCN1C(=O)[C@H](CCCNC(=N)N)NC(=O)[C@@H]1CCCN1C(=O)[C@H](CCCCN)NC(=O)CN)[C@@H](C)O)[C@@H](C)O)C(=O)N[C@@H](CCCNC(=N)N)C(=O)N[C@H](C(=O)O)C(C)C` [Peptide 4, GKPRP YTPRP TSHPR PIRV] (H-GKPRPYTPRPTSHPRPIRV-OH; N-terminus assumed), the MIC in the data set on Salmonella give was 25 µM (≈ 55.3 µg/mL); against E. coli O157: H7, 12.5 µM (≈ 27.7 µg/mL); against Pseudomonas auruginosa it was “NI at ≦100 μM”; in [3], “NI at ≦100 μM”; against Bacillus globigii, “NI at ≦100 μM”; against Bacillus anthracis it was “NI at ≦100 μM”. The MIC entry with Yersinia pestis KIM5 is “NI at ≦100 μM”; in [4], 100 µM (≈ 221 µg/mL); in data set [5], “NI at ≦100 μM”; in data set [6], 3.38 µM (≈ 7.48 µg/mL); with Vibrio cholerae it was “NI at ≦100 μM”; in data set [7] it was 12.5 µM (≈ 27.7 µg/mL). Further, the MIC is 12.5 µM (≈ 27.7 µg/mL) in the data set on Salmonella typhimurium; 12.5 µM (≈ 27.7 µg/mL) in [8]; 100 µM (≈ 221 µg/mL) in the data set on Klebsiella pneumoniae; 25 µM (≈ 55.3 µg/mL) in the data set with Salmonella infantis; “NI at ≦100 μM” in the data set with Bacillus thuringiensis; 1.6 µM (≈ 3.54 µg/mL) against E. coli ATCC 11775. Further, the MIC against Salmonella panama stood at 12.5 µM (≈ 27.7 µg/mL); in the data set with Shigella sonnei it was 100 µM (≈ 221 µg/mL); in the data set on Salmonella montevideo, 12.5 µM (≈ 27.7 µg/mL); against Salmonella enteritidis, 12.5 µM (≈ 27.7 µg/mL).

For orientation: MIC means the lowest concentration that inhibits growth of the organism. Lower therefore signals inhibition by little substance.
